Results reported in patent publication US9023789B2, “Amylin analogs and pharmaceutical compositions thereof” (Novo Nordisk A/S, priority 2012, dated 2015).
“Also recorded” adds a separate entry of the source. Like-named read-outs stand apart in the source and are kept apart here. Bridge positions count the residues as written; N and C are the ends. Ends that are not written are not given here.

Assays:
Male Sprague-Dawley rats = assay: ASSAY (XI) single subcutaneous administration, food intake monitored for 48 hours in rats; type: in vivo, rat; conditions: for Food intake red (%) 0-24 h / Food intake red (%) 24-48 h: single s.c., compared to vehicle
Excerpt: Assay (XI)—Effect from Single Subcutaneous Administration of Analogue on Plasma Calcium in Rats
Male Sprague-Dawley rats (Taconic Europe, ˜250 g at test date) were acclimatized to reversed day light cycle (lights on from 10 PM to 10 AM) and single housing in online food intake monitoring system (Ellegaard MBRose, Denmark) prior to study start. […] Data are illustrated in graphs as mean±SEM.

Male Wistar rats = assay: ASSAY (XII) effect from single subcutaneous administration on plasma calcium in rats; type: in vivo, rat; conditions: for Plasma calcium red (%) 0-12 h (maximal): single s.c., compared to vehicle
Method: Assay (XII)—Effect from Single Subcutaneous Administration of Analogue on Plasma Calcium in Rats
Male Wistar rats (Taconic Europe, ˜250 g at test date) were acclimatized to handling prior to the study. Rats were divided in groups of five and subcutaneously dosed with test compound at time=0. At time T=−15 min; 1 h, 2 h, 4 h, 7 h, 12 h, and 24 h a blood sample was obtained and heparin stabilized plasma was analysed for total calcium (Cobas, Hitachi). Data are illustrated in graphs as mean±SEM.

Sprague Dawley (SD) rats = assay: ASSAY (I) efficacy testing on appetite (food intake) using an ad libitum fed rat model; type: in vivo; conditions: rats, single subcutaneous 1000 nmol/kg injection
Excerpt: Sprague Dawley (SD) rats from Taconic Europe, Denmark are used for the experiments. The rats have a body weight 200-250 g at the start of experiment. The rats arrive at least 10-14 days before start of experiment to allow acclimatization to experimental settings. During this period the animals are handled at least 2 times. After arrival rats are housed individually for one week in a reversed light/dark phase (meaning that lights are off during daytime and on during nighttime) for two weeks. Since rats are normally active and eat their major part of their daily food intake during the dark period, rats are dosed in the morning right before lights are turned off. This set-up results in the lowest data variation and highst test sensitivity. The experiment is conducted in the rats' home cages and rats have free access to food and water throughout the acclimatization period and the experiment period. Each dose of derivative is tested in a group of 5-8 rats. A vehicle group of 6-8 rats is included in each set of testing. Rats are dosed once according to body weight with a 0.01-3 mg/kg solution administered intraperitoneally (ip), orally (po) or subcutaneously (sc). The time of dosing is recorded for each group. After dosing, the rats are returned to their home cages, where they then have access to food and water. The food consumption is recorded individually continuously by online registration or manually every hour for 7 hours, and then after 24 h and sometimes 48 h. At the end of the experimental session, the animals are euthanized.
The individual data are recorded in Microsoft excel sheets. Outliers are excluded after applying the Grubbs statistical evaluation test for outliers, and the result is presented graphically using the GraphPad Prism program.

[1] = test system: amylin receptor / calcitonin receptor; conditions: background statement, cited from earlier work

Plasma calcium red (%) 0-12 h (maximal) (Male Wistar rats; 3 nmol/kg) [%] | Plasma calcium red (%) 0-12 h (maximal) (Male Wistar rats; 30 nmol/kg) [%] | Compound | Food intake red (%) 0-24 h (Male Sprague-Dawley rats; 30 nmol/kg) [%] | Food intake red (%) 24-48 h (Male Sprague-Dawley rats; 30 nmol/kg) [%] | food intake monitored over 48 hours (Male Sprague-Dawley rats; single subcutaneous administration, 30 nmol/kg, versus vehicle) | plasma calcium (Male Wistar rats; dose 30 nmol/kg) | reduction of food intake (Sprague Dawley (SD) rats) [%] | Food intake red (%) 0-24 h (Male Sprague-Dawley rats; 1000 nmol/kg) [%] | Food intake red (%) 24-48 h (Male Sprague-Dawley rats; 1000 nmol/kg) [%] | Plasma calcium red (%) 0-12 h (maximal) (Male Wistar rats; 1000 nmol/kg) [%] | potency on the amylin receptor relative to the calcitonin receptor [1] | potency on the amylin receptor relative to the calcitonin receptor ([1]; listed as pramlintide) [times]
35 | 39 | CC(C)C[C@H](NC(=O)[C@H](CCCCN)NC(=O)CNC(=O)[C@H](CC(C)C)NC(=O)[C@@H](NC(=O)[C@@H]1CSSC[C@H](N)C(=O)N[C@@H](CO)C(=O)N[C@@H](CC(N)=O)C(=O)N[C@@H](CC(C)C)C(=O)N[C@@H](CO)C(=O)N[C@@H]([C@@H](C)O)C(=O)N1)C(C)C)C(=O)N[C@@H](CO)C(=O)N[C@@H](CCC(N)=O)C(=O)N[C@@H](CCC(=O)O)C(=O)N[C@@H](CC(C)C)C(=O)N[C@@H](Cc1c[nH]cn1)C(=O)N[C@@H](CCCCN)C(=O)N[C@@H](CC(C)C)C(=O)N[C@@H](CCC(N)=O)C(=O)N[C@H](C(=O)N[C@@H](Cc1ccc(O)cc1)C(=O)N1CCC[C@H]1C(=O)N[C@@H](CCCNC(=N)N)C(=O)N[C@H](C(=O)N[C@@H](CC(N)=O)C(=O)N[C@H](C(=O)NCC(=O)N[C@@H](CO)C(=O)NCC(=O)N[C@H](C(=O)N1CCC[C@H]1C(N)=O)[C@@H](C)O)[C@@H](C)O)[C@@H](C)O)[C@@H](C)O [salmon calcitonin, reference compound] | 87 | 19 | reduction of food intake; also recorded: reduces food intake | below 1.7 mM | – | – | – | – | – | –
– | – | Pramlintide (KCNTATCATQRLANFLVHSSNNFGPILPPTNVGSNTY-NH2; disulfide 2-7; UniProt P10997 34-70, looked up, variant A25P S28P S29P) [reference compound] | – | – | – | – | 25 | 25 | 0 | 28 | approximately 14 times | 14
